From US20080233159A1, “Home-use insecticide” (priority 2007, published 2008)

Columns and labels:
[1] = Solubility / compatibility with kerosene; assay type: physicochemical
[2] = test system: house flies; details: microdrop method, prallethrin isomers, d/d-trans isomer = 100; cited from earlier work
[3] = test system: adult male American cockroaches; assay: Turntable method, test aerosols; assay type: in vivo; details: 0.35 g/300 ml aerosol; for KT50 value: 1 second spray, 5 minutes exposure
Excerpt: (2-a) Turntable Method: A glass cylinder having an inner diameter of 20 cm and height of 43 cm was placed on a wooden stand and a glass pot (outer diameter: 15 cm, height: 15 cm) containing two adult male American cockroaches was attached directly beneath the cylinder by using a glass plate as a shutter. Test aerosol insecticides prepared in accordance with Example 1 were sprayed into the glass cylinder for 1 second. Five seconds later, the glass plate shutter was pulled out and the test cockroaches were exposed to the descending aerosol particles for 5 minutes. The range of times until the occurrence of knockdown and the approximate average times were determined followed by observation of mortality 24 hours later. This test was repeated six times.

[4] = test system: House flies (female adults); assay: Glass chamber method, test aerosols; assay type: in vivo; details: for Mortality: 10 minutes exposure, kill rate after additional 24 hours; for KT50 value: glass chamber 0.216 m^3, 1 second spray
Protocol: Glass chamber method: test aerosol insecticides prepared in accordance with Example 1 were sprayed for 1 second in a glass chamber having a volume of 60×60×60 cm (0.216 m^3). House flies (in groups of about 25 female adults each) were released into the chamber 10 seconds later, and the numbers of test […] that fell to the ground and rolled over during 10 minutes of exposure were recorded over the course of time to determine the KT50 values followed by observation of the kill rate after an additional 24 hours.

[5] = test system: female house flies; assay: Comparative efficacy test by the microdrop method, subject compound and its seven other isomers; assay type: in vivo; details: for Insecticidal Efficacy Relative efficacy ratio: subject compound = 100
Protocol: 2-Methyl-4-oxo-3-(2-propynyl)-2-cyclopenten-1-yl 2,2-dimethyl-3-(2,2-dichlorovinyl)cyclopropanecarboxylate has a total of eight isomers based on two asymmetric carbon atoms of the acid portion and one asymmetric carbon atom of the alcohol portion. Therefore, a comparative efficacy test was conducted on female house flies using the microdrop method for the subject compound and the other seven isomers.

[6] = test system: American cockroaches; assay: Residual contact method, test aerosols on decorative sheet; assay type: in vivo; details: for Mortality after 72 hours, After 1 day of spray: 0.35 g/300 ml aerosol at 25 mL/m^2, 2 hours contact 1 day after spraying
Protocol: (2-b) Residual Contact Method: The test aerosols were sprayed onto a decorative sheet measuring 20 cm on a side at the rate of 25 mL/m^2. After 1 day of spraying, a glass ring measuring 12 cm in diameter was placed on the decorative sheet and five American cockroaches were contacted with the sheet for 2 hours inside the ring at 1, 7, 15 and 21 days after spraying followed by observation of mortality 72 hours later.

C#CCC1=C(C)C(OC(=O)[C@H]2[C@H](C=C(Cl)Cl)C2(C)C)CC1=O (relative stereo) [Compound 1, (d)-2-methyl-4-oxo-3-(2-propynyl)-2-cyclopenten-1-yl (d)-trans-2,2-dimethyl-3-(2,2-dichlorovinyl)cyclopropanecarboxylate]
Solubility in / compatibility with kerosene [1]: satisfactory compatibility with solvents such as kerosene | Relative efficacy ratio [2]: 100 | Mortality after 24 hours [3]: 100% | KT50 value [3]: 102 s | Mortality ([4]; 0.15 g/300 ml aerosol): 93.3% | Mortality ([4]; 0.45 g/300 ml aerosol): 100% | KT50 value ([4]; 0.15 g/300 ml aerosol): 73 s | KT50 value ([4]; 0.45 g/300 ml aerosol): 36 s | Insecticidal Efficacy LD50 [5]: 0.0263 μg/insect | Insecticidal Efficacy Relative efficacy ratio [5]: 100 | Mortality after 72 hours, After 1 day of spray [6]: 100% | Mortality after 72 hours, After 7 days ([6]; 0.35 g/300 ml aerosol at 25 mL/m^2, 2 hours contact 7 days after spraying): 100% | Mortality after 72 hours, After 15 days ([6]; 0.35 g/300 ml aerosol at 25 mL/m^2, 2 hours contact 15 days after spraying): 100% | Mortality after 72 hours, After 21 days ([6]; 0.35 g/300 ml aerosol at 25 mL/m^2, 2 hours contact 21 days after spraying): 100%

C#CCC1=C(C)C(OC(=O)C2C(C=C(Cl)Cl)C2(C)C)CC1=O (stereo not drawn) [Compound 8, 2-Methyl-4-oxo-3-(2-propynyl)-2-cyclopenten-1-yl 2,2-dimethyl-3-(2,2-dichlorovinyl)cyclopropanecarboxylate]
Relative efficacy ratio [2]: 0.2 | Insecticidal Efficacy LD50 [5]: 5.30 μg/insect | Insecticidal Efficacy Relative efficacy ratio [5]: 0.5

C#CCN1CC(=O)N(COC(=O)[C@@H]2C(C=C(C)C)C2(C)C)C1=O (mixture of isomers) [Imiprothrin, imiprothrin, reference compound]
Solubility in / compatibility with kerosene [1]: extremely poor solubility in kerosene | Mortality after 24 hours [3]: 83% | KT50 value [3]: 51 s | Mortality after 72 hours, After 1 day of spray [6]: 0%

2-Methyl-4-oxo-3-(2-propynyl)-2-cyclopenten-1-yl 2,2-dimethyl-3-(2,2-dichlorovinyl)cyclopropanecarboxylate [Compound 2]
Relative efficacy ratio [2]: 39

C#CCC1=C(C)C(OC(=O)C2C(C=C(Cl)Cl)C2(C)C)CC1=O (stereo not drawn) [Compound 2, 2-Methyl-4-oxo-3-(2-propynyl)-2-cyclopenten-1-yl 2,2-dimethyl-3-(2,2-dichlorovinyl)cyclopropanecarboxylate]
Insecticidal Efficacy LD50 [5]: 0.0415 μg/insect | Insecticidal Efficacy Relative efficacy ratio [5]: 63.0

C#CCC1=C(C)C(OC(=O)C2C(C=C(Cl)Cl)C2(C)C)CC1=O (stereo not drawn) [Compound 4, 2-Methyl-4-oxo-3-(2-propynyl)-2-cyclopenten-1-yl 2,2-dimethyl-3-(2,2-dichlorovinyl)cyclopropanecarboxylate]
Relative efficacy ratio [2]: 13 | Insecticidal Efficacy LD50 [5]: 0.376 μg/insect | Insecticidal Efficacy Relative efficacy ratio [5]: 7.0

C#CCC1=C(C)C(OC(=O)C2C(C=C(Cl)Cl)C2(C)C)CC1=O (stereo not drawn) [Compound 7, 2-Methyl-4-oxo-3-(2-propynyl)-2-cyclopenten-1-yl 2,2-dimethyl-3-(2,2-dichlorovinyl)cyclopropanecarboxylate]
Relative efficacy ratio [2]: 0.2 | Insecticidal Efficacy LD50 [5]: 3.29 μg/insect | Insecticidal Efficacy Relative efficacy ratio [5]: 0.8

C#CCC1=C(C)C(OC(=O)C2C(C=C(Cl)Cl)C2(C)C)CC1=O (stereo not drawn) [Compound 3, 2-Methyl-4-oxo-3-(2-propynyl)-2-cyclopenten-1-yl 2,2-dimethyl-3-(2,2-dichlorovinyl)cyclopropanecarboxylate]
Relative efficacy ratio [2]: 17 | Insecticidal Efficacy LD50 [5]: 0.245 μg/insect | Insecticidal Efficacy Relative efficacy ratio [5]: 11.0

C#CCC1=C(C)C(OC(=O)C2C(C=C(Cl)Cl)C2(C)C)CC1=O (stereo not drawn) [Compound 6, 2-Methyl-4-oxo-3-(2-propynyl)-2-cyclopenten-1-yl 2,2-dimethyl-3-(2,2-dichlorovinyl)cyclopropanecarboxylate]
Relative efficacy ratio [2]: 0.4 | Insecticidal Efficacy LD50 [5]: 0.526 μg/insect | Insecticidal Efficacy Relative efficacy ratio [5]: 5.0

C#CCC1=C(C)C(OC(=O)C2C(C=C(Cl)Cl)C2(C)C)CC1=O (stereo not drawn) [Compound 5, 2-Methyl-4-oxo-3-(2-propynyl)-2-cyclopenten-1-yl 2,2-dimethyl-3-(2,2-dichlorovinyl)cyclopropanecarboxylate]
Relative efficacy ratio [2]: 1.3 | Insecticidal Efficacy LD50 [5]: 0.337 μg/insect | Insecticidal Efficacy Relative efficacy ratio [5]: 7.8

d-T80-phthalthrin [reference compound]
Mortality after 24 hours [3]: 33% | KT50 value [3]: >300 s | Mortality ([4]; 0.15 g/300 ml aerosol): 20.0% | Mortality ([4]; 0.45 g/300 ml aerosol): 39.2% | KT50 value ([4]; 0.15 g/300 ml aerosol): 204 s | KT50 value ([4]; 0.45 g/300 ml aerosol): 73 s
